# Source: the supplement of paper PMC10307832
# Columns and labels:
# Experiment in all cases: relative viability (nuclei count vs DMSO), 5 days (fraction); higher = more cells survive
# AZ628 + Olaparib = compound: CC1=C(C=C(C=C1)NC(=O)C2=CC(=CC=C2)C(C)(C)C#N)NC3=CC4=C(C=C3)N=CN(C4=O)C [AZ628] + O=C(c1cc(Cc2n[nH]c(=O)c3ccccc23)ccc1F)N1CCN(C(=O)C2CC2)CC1 [Olaparib] (partner 8 µM)
# Method in brief: (§1)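 Relative viability is defined as nuclei in treated wells over nuclei in vehicle wells. Duplicate plates were run and medians reported. Lung cancer cell lines in 1536-well plates were dosed by pin tool one day after seeding, with one drug or with a fixed anchor-drug dose plus five library-drug doses (not always all listed) in √10 steps, and nuclei were counted after 5 days.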
# [1] = compound: C[As](C)SC[C@H](NC(=O)CC[C@H](N)C(=O)O)C(=O)NCC(=O)O [Darinaparsin] + CS(=O)(=O)N1CCN(Cc2cc3nc(-c4cccc5[nH]ncc45)nc(N4CCOCC4)c3s2)CC1 [Pictilisib] (partner 1 µM)
# Method in brief: as §1
# AZ628 + OSI-027 = compound: CC1=C(C=C(C=C1)NC(=O)C2=CC(=CC=C2)C(C)(C)C#N)NC3=CC4=C(C=C3)N=CN(C4=O)C [AZ628] + COc1cccc2cc(-c3nc([C@H]4CC[C@H](C(=O)O)CC4)n4ncnc(N)c34)[nH]c12 [OSI-027] (partner 0.5 µM)
# Method in brief: as §1
# Darinaparsin + Olaparib = compound: C[As](C)SC[C@H](NC(=O)CC[C@H](N)C(=O)O)C(=O)NCC(=O)O [Darinaparsin] + O=C(c1cc(Cc2n[nH]c(=O)c3ccccc23)ccc1F)N1CCN(C(=O)C2CC2)CC1 [Olaparib] (partner 8 µM)
# Method in brief: as §1
Cell Line,relative viability (AZ628 + Olaparib; first compound 0.08 µM),relative viability (AZ628 + Olaparib; first compound 0.253 µM),relative viability (AZ628 + Olaparib; first compound 0.8 µM),relative viability (AZ628 + Olaparib; first compound 2.53 µM),relative viability (AZ628 + Olaparib; first compound 8 µM),relative viability ([1]; first compound 0.08 µM),relative viability ([1]; first compound 0.8 µM),relative viability ([1]; first compound 2.53 µM),relative viability ([1]; first compound 8 µM),relative viability (AZ628 + OSI-027; first compound 0.08 µM),relative viability (AZ628 + OSI-027; first compound 0.253 µM),relative viability (AZ628 + OSI-027; first compound 0.8 µM),relative viability (AZ628 + OSI-027; first compound 2.53 µM),relative viability (AZ628 + OSI-027; first compound 8 µM),relative viability (Darinaparsin + Olaparib; first compound 0.08 µM),relative viability (Darinaparsin + Olaparib; first compound 0.8 µM),relative viability (Darinaparsin + Olaparib; first compound 2.53 µM),relative viability (Darinaparsin + Olaparib; first compound 8 µM)
EKVX,0.926,0.768,0.947,0.914,0.79,0.508,0.404,0.452,0.488,0.715,0.673,0.804,0.764,0.572,0.878,0.697,0.801,0.735
EMC-BAC-2,0.566,0.581,0.612,0.558,0.746,0.607,0.501,0.582,0.568,0.397,0.425,0.477,0.436,0.448,0.475,0.447,0.614,0.461
EPLC-272H,0.492,0.663,0.603,0.568,0.452,0.295,0.332,0.266,0.311,0.211,0.258,0.295,0.238,0.171,0.659,0.958,0.514,0.615
H3255,0.561,0.557,0.596,0.611,0.427,0.474,0.429,0.421,0.514,0.64,0.484,0.564,0.584,0.323,0.644,0.518,0.606,0.632
HARA,0.762,0.764,0.869,0.84,0.51,0.393,0.371,0.324,0.413,0.322,0.432,0.472,0.439,0.245,0.598,,0.769,0.779
HCC-15,0.712,0.747,0.737,0.738,0.53,0.879,0.71,0.72,0.92,0.751,0.582,0.461,0.433,0.236,0.762,0.712,0.738,0.722
HCC-44,1.01,0.999,0.977,0.972,0.974,0.852,0.574,0.44,0.677,0.453,0.441,0.493,0.374,0.365,1.06,0.993,0.942,1.03
HCC-78,0.94,0.808,0.807,0.786,0.903,0.191,0.228,0.246,0.267,0.427,0.37,0.391,0.341,0.399,0.884,0.712,0.851,0.955
HCC-366,0.358,0.31,0.263,0.271,0.192,0.108,0.13,0.158,0.162,0.895,0.63,0.662,0.62,0.209,0.502,,0.328,0.42
HCC-827,0.652,0.621,0.704,0.661,0.528,1.06,0.907,0.901,1.01,0.741,0.82,0.796,0.703,0.418,0.784,0.638,0.65,0.759
HOP-62,0.543,0.359,0.633,0.68,0.39,0.99,0.588,0.774,1.04,0.828,0.857,0.831,0.857,0.43,0.56,0.487,0.402,0.525
LC-2-ad,0.712,0.646,0.823,0.736,0.681,0.564,0.456,0.32,0.533,0.817,0.87,0.779,0.821,0.703,0.739,0.748,0.669,0.719
LCLC-103H,0.797,0.77,0.761,0.779,0.769,0.52,0.566,0.593,0.604,0.418,0.438,0.531,0.403,0.423,0.882,0.698,0.742,0.861
LK-2,0.874,0.549,0.684,0.689,0.309,0.634,,0.547,0.564,0.191,0.234,0.234,0.187,0.198,0.727,0.546,0.644,0.731
LOU-NH91,0.935,0.94,0.965,0.936,0.764,0.535,0.492,0.553,0.56,0.72,0.712,0.651,0.664,0.569,0.932,0.869,0.912,0.964
LU99A,0.269,0.255,0.272,0.296,0.214,0.336,0.313,0.294,0.322,0.271,0.313,0.268,0.288,0.239,0.275,0.252,0.125,0.246
LXF-289,1.13,1.01,0.922,1.08,0.756,0.806,0.749,0.597,0.981,0.812,0.763,0.736,0.74,0.434,1.46,1.09,0.841,1.03
NCI-H23,0.316,0.312,0.331,0.227,0.216,0.431,0.494,0.444,0.603,0.568,0.528,0.464,0.474,0.309,0.293,0.291,0.363,0.331

Cell Line,relative viability (AZ628 + Olaparib; first compound 0.08 µM),relative viability (AZ628 + Olaparib; first compound 0.253 µM),relative viability (AZ628 + Olaparib; first compound 0.8 µM),relative viability (AZ628 + Olaparib; first compound 2.53 µM),relative viability (AZ628 + Olaparib; first compound 8 µM),relative viability ([1]; first compound 0.08 µM),relative viability ([1]; first compound 0.8 µM),relative viability ([1]; first compound 2.53 µM),relative viability ([1]; first compound 8 µM),relative viability (AZ628 + OSI-027; first compound 0.08 µM),relative viability (AZ628 + OSI-027; first compound 0.253 µM),relative viability (AZ628 + OSI-027; first compound 0.8 µM),relative viability (AZ628 + OSI-027; first compound 2.53 µM),relative viability (AZ628 + OSI-027; first compound 8 µM),relative viability (Darinaparsin + Olaparib; first compound 0.08 µM),relative viability (Darinaparsin + Olaparib; first compound 0.8 µM),relative viability (Darinaparsin + Olaparib; first compound 2.53 µM),relative viability (Darinaparsin + Olaparib; first compound 8 µM)
NCI-H322M,0.805,0.755,0.819,0.774,0.783,0.58,0.495,0.469,0.59,0.503,0.534,0.541,0.532,0.482,0.763,0.763,0.713,0.726
NCI-H358,0.567,0.457,0.361,0.417,0.295,0.315,0.319,0.343,0.319,0.647,0.602,0.403,0.354,0.286,0.701,0.61,0.585,0.569
NCI-H441,0.547,0.532,0.738,0.699,0.542,0.566,0.498,0.424,0.548,0.801,0.558,0.634,0.588,0.492,0.647,0.538,0.734,0.502
NCI-H460,0.543,0.397,0.342,0.414,0.371,0.479,0.415,0.373,0.406,0.738,0.64,0.259,0.429,0.107,0.614,0.413,0.435,0.324
NCI-H520,0.358,0.32,0.325,0.396,0.23,0.287,0.339,0.241,0.277,0.262,0.21,0.206,0.203,0.232,0.378,0.321,0.354,0.313
NCI-H596,0.76,0.793,0.703,0.799,0.651,0.396,0.397,0.416,0.378,0.715,0.67,0.818,0.721,0.528,0.634,0.675,0.667,0.774
NCI-H647,0.848,0.616,0.495,0.551,0.573,0.449,0.396,0.488,0.47,0.666,0.722,0.495,0.537,0.462,0.681,0.601,0.382,0.604
NCI-H650,0.43,0.462,0.482,0.512,0.627,0.856,0.834,0.922,1.13,0.664,0.687,0.766,0.689,0.678,0.368,0.361,0.418,0.34
NCI-H661,0.748,0.702,0.699,0.727,0.644,0.422,0.4,0.491,0.42,0.631,0.617,0.513,0.593,0.47,0.799,0.787,0.699,0.815
NCI-H727,0.603,,,0.506,0.333,0.405,0.425,0.297,0.465,0.626,0.402,0.328,0.397,0.338,0.388,0.561,0.726,0.612
NCI-H838,0.765,0.821,0.713,0.727,0.623,0.481,0.407,0.39,0.472,0.487,0.413,0.303,0.325,0.354,1.07,0.778,0.734,0.941
NCI-H1355,0.73,0.784,0.684,0.745,0.574,0.445,0.37,0.451,0.456,0.435,0.327,0.311,0.308,0.298,0.78,0.708,0.676,0.746
NCI-H1395,0.478,0.458,0.443,0.461,0.447,0.538,0.617,0.619,0.568,0.652,0.544,0.625,0.56,0.554,0.457,0.441,0.407,0.404
NCI-H1437,0.584,0.605,0.767,0.597,0.54,0.468,0.409,0.395,0.391,0.896,0.836,0.723,0.934,0.904,0.705,0.623,0.615,0.689
NCI-H1650,0.839,0.866,0.847,0.766,0.909,0.666,0.503,0.623,0.59,0.642,0.793,0.666,0.557,0.458,0.956,0.718,0.95,0.801
NCI-H1651,0.171,0.186,0.172,0.184,0.191,0.721,0.554,0.471,0.865,0.577,0.703,0.649,0.579,0.659,0.192,0.18,0.18,0.159
NCI-H1666,0.733,0.745,0.671,0.739,0.782,0.418,0.458,0.454,0.53,0.827,0.789,0.676,0.744,0.656,0.734,0.746,0.834,0.72
